Assay [1] addresses T1, Recombinant human FAP (Homo sapiens, UniProt Q12884).
T1 construct: purchased R&D systems
T1 sequence (Q12884 1-760): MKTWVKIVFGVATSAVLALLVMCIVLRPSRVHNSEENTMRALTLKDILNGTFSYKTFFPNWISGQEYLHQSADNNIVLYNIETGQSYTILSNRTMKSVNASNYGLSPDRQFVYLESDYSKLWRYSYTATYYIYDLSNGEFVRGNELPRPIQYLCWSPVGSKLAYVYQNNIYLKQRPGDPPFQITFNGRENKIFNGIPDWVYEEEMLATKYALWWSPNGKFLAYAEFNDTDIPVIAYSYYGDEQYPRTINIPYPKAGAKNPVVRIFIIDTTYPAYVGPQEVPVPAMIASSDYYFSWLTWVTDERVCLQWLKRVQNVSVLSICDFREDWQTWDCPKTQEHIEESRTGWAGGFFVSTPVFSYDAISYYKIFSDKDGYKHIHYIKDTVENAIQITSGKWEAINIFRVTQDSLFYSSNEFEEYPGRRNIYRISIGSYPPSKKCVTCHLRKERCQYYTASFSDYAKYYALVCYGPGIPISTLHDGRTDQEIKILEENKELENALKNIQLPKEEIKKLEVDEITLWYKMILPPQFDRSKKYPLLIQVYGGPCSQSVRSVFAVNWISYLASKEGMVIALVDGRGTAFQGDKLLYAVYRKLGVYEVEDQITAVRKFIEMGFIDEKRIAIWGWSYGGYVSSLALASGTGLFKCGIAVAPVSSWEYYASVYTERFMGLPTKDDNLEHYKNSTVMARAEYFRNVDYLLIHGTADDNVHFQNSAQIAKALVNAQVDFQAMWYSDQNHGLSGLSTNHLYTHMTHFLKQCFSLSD
Put plainly: FAP inhibition, fluorogenic substrate Z-Gly-Pro-AMC. Format: biochemical. The following applies: for inhibition at 1 µM: read-out: hFAP inhibition % at 1 μM. On the procedure: The compounds according to the present technology were evaluated in terms of the inhibitory effect on the activity of dipeptidyl peptidases including FAP by using a substrate producing fluorescent substances upon enzymatic decomposition. The test was conducted at 25° C. to get a final reaction volume of 100 μL in a 96 black well plate. […] Briefly, the test compounds were dissolved in dimethyl sulfoxide (DMSO) at a concentration of 20 mM and then subjected to serial dilution, thereby creating an 8 point curve. As for the control group, a 6 point curve created by serial dilution of Talabostat in the same buffer solution was used. Fluorescence intensity was measured using a microplate reader (Flexstation3, Molecular Devices) under the wavelength condition exciting at 380 nm and reading the emission at 460 nm. The inhibitory effect of the test compounds was measured as a decrease (%) in the signal rate as compared to the control group without any inhibitor. Data was fixed to a logistic model with four variables and IC50 value was calculated using GraphPad Prism program. Recombinant human FAP (R&D systems) was diluted with 50 mM tris (pH 7.5) buffer comprising 1 M of sodium chloride and 1 mg/ml of bovine serum albumin (BSA) to be 10 ng per final reaction. The test compounds were subjected to serial dilution in a buffer under the condition containing up to 0.1% of DMSO. Z-Gly-Pro-AMC (Bachem) was used as a substrate. By dissolving in DMSO and then diluting in the same buffer, the substrate was added to be […] per final reaction.

Assay [2] addresses DPP4 (Homo sapiens, UniProt P27487). Put plainly: DPP4 inhibition, fluorogenic substrate H-Gly-Pro-AMC. Format: biochemical. Set-up: purchased R&D Systems. The note with it: for inhibition at 1 µM: read-out: hDPP4 inhibition % at 1 μM; for IC50: recombinant human DPP4. On the procedure: The compounds according to the present technology were evaluated in terms of the inhibitory effect on the activity of dipeptidyl peptidases including FAP by using a substrate producing fluorescent substances upon enzymatic decomposition. The test was conducted at 25° C. to get a final reaction volume of 100 μL in a 96 black well plate. […] Briefly, the test compounds were dissolved in dimethyl sulfoxide (DMSO) at a concentration of 20 mM and then subjected to serial dilution, thereby creating an 8 point curve. As for the control group, a 6 point curve created by serial dilution of Talabostat in the same buffer solution was used. Fluorescence intensity was measured using a microplate reader (Flexstation3, Molecular Devices) under the wavelength condition exciting at 380 nm and reading the emission at 460 nm. The inhibitory effect of the test compounds was measured as a decrease (%) in the signal rate as compared to the control group without any inhibitor. Data was fixed to a logistic model with four variables and IC50 value was calculated using GraphPad Prism program. As for recombinant human DPP4 (R&D Systems), 25 mM tris (pH 8.0) buffer as a buffer solution and H-Gly-Pro-AMC (Bachem) as a substrate were used. As for recombinant human DPP7 (R&D Systems), 25 mM MES (pH 6.0) buffer as a buffer solution and Lys-Pro-AMC (Bachem) as a substrate were used. As for recombinant human DPP8 (PBS Bioscience), as a buffer solution, a 10 mM tris (pH 7.4) buffer comprising 10 mM of magnesium chloride and 0.05% of Tween 20, and Z-Ala-Pro-AMC (BPS Bioscience) as a substrate were used. As for recombinant human DPP9 (R&D Systems), a 25 mM tris (pH 8.0) buffer as a buffer solution and H-Gly-Pro-AMC (Bachem) as a substrate were used. As for recombinant human PREP (R&D System), as a buffer solution, a 25 mM tris (pH 7.5) buffer comprising 250 mM sodium chloride and 2.5 mM DTT (Dithiolthreitol), and Z-Gly-Pro-AMC (Bachem) as a substrate were used. The evaluation was made by using 10 ng of DPP4, PDD7, and PREP, 20 ng of DPP8, and 50 ng of DPP9 based on the final reaction. In the evaluation of DPP4, the test compounds were subjected to serial dilution in a buffer under the condition containing up to 0.1% of DMSO. In the evaluation of DPP7, DPP8, DPP9, and PREP, the test compounds were subjected to serial dilution in each buffer under the condition containing up to 0.5% of DMSO.

Where [3] appears, read: 25° C., Z-Gly-Pro-AMC substrate.
Where [4] appears, read: recombinant human FAP, substrate Z-Gly-Pro-AMC.

From patent publication US11655235B2, “Pyrrolidine and piperidine compounds” (YUHAN CORPORATION, priority 2019, dated 2023) come the findings set out here.

The structures appear in SMILES notation. Some results are limits rather than exact numbers.

DPP4, sequence (P27487 whole entry): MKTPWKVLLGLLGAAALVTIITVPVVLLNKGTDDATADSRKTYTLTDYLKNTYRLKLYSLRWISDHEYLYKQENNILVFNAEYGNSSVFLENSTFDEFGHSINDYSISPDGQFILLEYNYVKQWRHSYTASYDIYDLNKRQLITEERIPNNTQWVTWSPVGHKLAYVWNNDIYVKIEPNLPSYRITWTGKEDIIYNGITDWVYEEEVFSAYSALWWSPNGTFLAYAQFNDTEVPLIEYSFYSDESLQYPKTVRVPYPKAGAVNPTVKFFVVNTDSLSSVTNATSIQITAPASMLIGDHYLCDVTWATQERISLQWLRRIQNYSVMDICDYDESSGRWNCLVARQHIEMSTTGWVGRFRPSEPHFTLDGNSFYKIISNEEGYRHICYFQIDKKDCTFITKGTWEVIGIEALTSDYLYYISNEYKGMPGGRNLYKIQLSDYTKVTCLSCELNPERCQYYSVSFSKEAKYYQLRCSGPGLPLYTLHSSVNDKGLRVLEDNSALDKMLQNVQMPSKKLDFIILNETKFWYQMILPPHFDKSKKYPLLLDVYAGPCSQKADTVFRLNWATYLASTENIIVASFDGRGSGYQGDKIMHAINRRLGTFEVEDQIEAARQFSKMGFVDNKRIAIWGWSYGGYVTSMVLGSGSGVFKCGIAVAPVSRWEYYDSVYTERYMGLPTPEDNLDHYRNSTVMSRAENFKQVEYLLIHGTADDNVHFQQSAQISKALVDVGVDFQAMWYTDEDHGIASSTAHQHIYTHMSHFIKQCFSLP

Regarding `COc1cccc2c(C(=O)N[C@H]3CCN(CC(=O)N4CCC[C@H]4C#N)C3)coc12` [Example 47, N—((S)-1-(2-((S)-2-cyanopyrrolidin-1-yl)-2-oxoethyl)pyrrolidin-3-yl)-7-methoxybenzofuran-3-carboxamide], the IC50 (commonly the midpoint of a concentration-inhibition curve) in assay [1] (setting [3]) worked out at 18.8 nM. Further, the inhibition – broadly, how much of the control response was suppressed – at 1 µM in assay [2] came to 3.7%.
As for `CN(c1cccc2cnccc12)C1CCN(CC(=O)N2C[C@@H](F)C[C@H]2C#N)CC1` [Example 318, (2S,4S)-4-fluoro-1-[2-[4-[5-isoquinolyl(methyl)amino]-1-piperidyl]acetyl]pyrrolidine-2-carbonitrile], the IC50 in assay [1] (setting [4]) was 18.2 nM; in assay [2], more than 10000 nM.
Regarding `N#C[C@@H]1CCCN1C(=O)CN1CCC(Nc2cncc3ccoc23)CC1` [Example 116, (S)-1-(2-(4-(furo[3,2-c]pyridin-7-ylamino)piperidin-1-yl)acetyl)pyrrolidine-2-carbonitrile], in assay [1], the inhibition at 1 µM came out at 82.4%. Also, in assay [2], the “hDPP4 inhibition % at 1 μM” value is listed as “No inhibition**”.
In the case of `N#C[C@@H]1CCCN1C(=O)CN1CCC(Oc2cnc3ccccc3c2)CC1` [Example 117, (S)-1-(2-(4-(quinolin-3-yloxy)piperidin-1-yl)acetyl)pyrrolidine-2-carbonitrile], in assay [1] (setting [3]), the IC50 is 22.9 nM. Besides, the “hDPP4 inhibition % at 1 μM” value in assay [2] is reported as “No inhibition**”.
Consider `N#C[C@@H]1CCCN1C(=O)CN1CC[C@H](Oc2ccccc2-c2nc3ccccc3o2)C1` [Example 97, (S)-1-(2-((S)-3-(2-(benzo[d]oxazol-2-yl)phenoxy)pyrrolidin-1-yl)acetyl)pyrrolidine-2-carbonitrile], for which the inhibition at 1 µM was found to be 36.3% in assay [1] and 8.3% in assay [2].
Taken in the same sequence, the figures for `Cc1oc2ccccc2c1C(=O)N[C@H]1CCN(CC(=O)N2CCC[C@H]2C#N)C1` [Example 42, N—((S)-1-(2-((S)-2-cyanopyrrolidin-1-yl)-2-oxoethyl)pyrrolidin-3-yl)-2-methylbenzofuran-3-carboxamide] were 84.6% and 1.4%.
Regarding `N#C[C@@H]1CCCN1C(=O)CN1CC[C@H](Oc2ccc3c(c2)OCO3)C1` [Example 67, (S)-1-(2-((S)-3-(benzo[d][1,3]dioxol-5-yloxy)pyrrolidin-1-yl)acetyl)pyrrolidine-2-carbonitrile], the inhibition at 1 µM in assay [1] is 64%. In assay [2], the “hDPP4 inhibition % at 1 μM” value was “No inhibition**”.
With `N#C[C@@H]1CCCN1C(=O)CN1CC[C@H](Oc2cc(OCc3ccccc3)ccn2)C1` [Example 93, (S)-1-(2-((S)-3-((4-(benzyloxy)pyridin-2-yl)oxy)pyrrolidin-1-yl)acetyl)pyrrolidine-2-carbonitrile], the IC50 in assay [1] (setting [3]) was found to be 69.6 nM. Besides, in assay [2], the inhibition at 1 µM was 11.6%.
For `N#C[C@@H]1CCCN1C(=O)CN1CC[C@H](Oc2ccc3c(c2)CCC(=O)N3)C1` [Example 77, (S)-1-(2-((S)-3-((2-oxo-1,2,3,4-tetrahydroquinolin-6-yl)oxy)pyrrolidin-1-yl)acetyl)pyrrolidine-2-carbonitrile] the same measures were 82.3 nM and 0.4%.
For the compound `N#Cc1ccc2c(NC3CCN(CC(=O)N4C[C@@H](F)C[C@H]4C#N)CC3)cccc2n1` [Example 335, 5-[[1-[2-oxo-2-[(2S,4S)-2-cyano-4-fluoro-pyrrolidin-1-yl]ethyl]-4-piperidyl]amino]quinoline-2-carbonitrile], the figures for the IC50 in assay [1] (setting [4]) and in assay [2] were 5.9 nM and 7330 nM, respectively.
For the compound `N#C[C@@H]1CCCN1C(=O)CN1CC[C@H](C(=O)Nc2cnc3ccccc3c2)C1` [Example 3, (S)-1-(2-((S)-2-cyanopyrrolidin-1-yl)-2-oxoethyl)-N-(quinolin-3-yl)pyrrolidine-3-carboxamide], the IC50 in assay [1] (setting [3]) worked out at 175 nM. Also, the inhibition at 1 µM in assay [2] was 4.2%.
Consider `N#C[C@@H]1CCCN1C(=O)CN1CC[C@H](Oc2ccc3ncnc(Cl)c3c2)C1` [Example 74, (S)-1-(2-((S)-3-((4-chloroquinazolin-6-yl)oxy)pyrrolidin-1-yl)acetyl)pyrrolidine-2-carbonitrile], for which the inhibition at 1 µM in assay [1] was found to be 92.3%. Moreover, the “hDPP4 inhibition % at 1 μM” value in assay [2] was “No inhibition**”.
Take `N#C[C@@H]1CCCN1C(=O)CN1CC[C@H](NC(=O)c2ccccc2-c2ccccc2)C1` [Example 39, N—((S)-1-(2-((S)-2-cyanopyrrolidin-1-yl)-2-oxoethyl)pyrrolidin-3-yl)-[1,1′-biphenyl]-2-carboxamide]: the figures for the inhibition at 1 µM in assay [1] and in assay [2] were 68.1% and 0.4%, respectively.
With `N#C[C@@H]1CCCN1C(=O)CN1CC[C@H](NC(=O)c2cnc3ccccc3c2)C1` [Example 31, N—((S)-1-(2-((S)-2-cyanopyrrolidin-1-yl)-2-oxoethyl)pyrrolidin-3-yl)quinoline-3-carboxamide], the IC50 in assay [1] (setting [3]) turned out to be 164 nM. For the same compound, the inhibition at 1 µM in assay [2] is 5.4%.
With `N#C[C@@H]1CCCN1C(=O)CN1CC[C@H](Oc2cccc3c2CCC(=O)N3)C1` [Example 76, (S)-1-(2-((S)-3-((2-oxo-1,2,3,4-tetrahydroquinolin-5-yl)oxy)pyrrolidin-1-yl)acetyl)pyrrolidine-2-carbonitrile], in assay [1] (setting [3]), the IC50 stood at 53.6 nM. For the same compound, the “hDPP4 inhibition % at 1 μM” value in assay [2] is given as “No inhibition**”.
On to `N#C[C@@H]1C[C@H](F)CN1C(=O)CN1CCC(Nc2ccc(OCc3ccccc3)c3ncccc23)CC1` [Example 332, (2S,4S)-1-[2-[4-[(8-benzyloxy-5-quinolyl)amino]-1-piperidyl]acetyl]-4-fluoro-pyrrolidine-2-carbonitrile], for which the IC50 in assay [1] (setting [4]) is 5.5 nM; in assay [2], 6200 nM.
Regarding `N#C[C@@H]1CCCN1C(=O)CN1CC[C@H](Oc2ccc(-c3ccccc3)cc2)C1` [Example 83, (S)-1-(2-((S)-3-([1,1′-biphenyl]-4-yloxy)pyrrolidin-1-yl)acetyl)pyrrolidine-2-carbonitrile], the inhibition at 1 µM in assay [1] is 68.1%; in assay [2], 6.3%.
Consider `CN(c1ccnc2ccccc12)C1CCN(CC(=O)N2CCC[C@H]2C#N)CC1` [Example 308, (2S)-1-[2-[4-[methyl(4-quinolyl)amino]-1-piperidyl]acetyl]pyrrolidine-2-carbonitrile], for which the results for the IC50 in assay [1] (setting [4]) and in assay [2] were 96.8 nM and more than 10000 nM, respectively.
